US20240391954A1, “MC4R AGONIST PEPTIDES” (The Regents of the University of Michigan, priority 2021, published 2024)
Like-named read-outs stand apart in the source and are kept apart here. Positions of bridges follow the written chain, without caps; N, C: chain ends. Non-standard residues stand in square brackets, D forms with d. Residues, ends and D or L forms follow the SMILES beside them. dPhe(4-Br) = N[C@H](Cc1ccc(Br)cc1)C(=O)O; dPhe(4-I) = N[C@H](Cc1ccc(I)cc1)C(=O)O; d2Nal = N[C@H](Cc1ccc2ccccc2c1)C(=O)O; d(hPhe) = N[C@H](CCc1ccccc1)C(=O)O; hCit = NC(=O)NCCCC[C@H](N)C(=O)O; dTic = O=C(O)[C@H]1Cc2ccccc2CN1; Cit = NC(=O)NCCC[C@H](N)C(=O)O; Nle = CCCC[C@H](N)C(=O)O; Aib = CC(C)(N)C(=O)O

Key:
human MC3R [1] = target: T1, human MC3R (Homo sapiens, UniProt P41968); assay: split-luciferase cAMP sensor assay, agonist mode (measurement window 1), hMC3R; assay type: cell-based; details: agonist mode; for Emax: read-out: MC3R cAMP % max activation; for EC50: read-out: MC3R cAMP EC50
T1 construct: expressed in transfected cells; host or cells: HEK-293 cells stably expressing the GScAMP22F split-luciferase cAMP sensor (parent reporter line from Promega); MC3R clone generated in-house, G418 selection
T1 sequence (P41968 whole entry): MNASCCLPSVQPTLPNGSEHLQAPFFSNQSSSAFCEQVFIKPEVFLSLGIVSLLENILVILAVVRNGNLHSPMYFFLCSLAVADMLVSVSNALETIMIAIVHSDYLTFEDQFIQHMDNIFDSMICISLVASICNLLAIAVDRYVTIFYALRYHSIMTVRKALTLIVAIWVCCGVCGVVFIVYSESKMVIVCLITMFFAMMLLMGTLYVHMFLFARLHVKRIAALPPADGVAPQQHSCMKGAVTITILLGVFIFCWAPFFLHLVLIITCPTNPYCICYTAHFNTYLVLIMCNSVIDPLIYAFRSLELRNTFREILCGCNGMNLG
Summary of the method: (§1)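 Live stable cell lines carrying receptor plus GloSensor cAMP22f split-luciferase, loaded with 4% D-luciferin in serum-free medium (~1% serum estimated during assay). Luminescence recorded during in-line peptide addition; direct agonist effect read in window 1, with 20 μM forskolin as normalization reference. EC50 from four-parameter sigmoid fit.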

human MC4R = target: T2, human MC4R (Homo sapiens, UniProt P32245); assay: split-luciferase cAMP sensor assay, agonist mode (measurement window 1), hMC4R; assay type: cell-based; details: for Emax: read-out: MC4R cAMP % max activation; for EC50: read-out: MC4R cAMP EC50
T2 construct: host or cells: HEK-293 cells stably expressing the GScAMP22F split-luciferase cAMP sensor and hMC4R, G418 selection
T2 sequence (P32245 whole entry): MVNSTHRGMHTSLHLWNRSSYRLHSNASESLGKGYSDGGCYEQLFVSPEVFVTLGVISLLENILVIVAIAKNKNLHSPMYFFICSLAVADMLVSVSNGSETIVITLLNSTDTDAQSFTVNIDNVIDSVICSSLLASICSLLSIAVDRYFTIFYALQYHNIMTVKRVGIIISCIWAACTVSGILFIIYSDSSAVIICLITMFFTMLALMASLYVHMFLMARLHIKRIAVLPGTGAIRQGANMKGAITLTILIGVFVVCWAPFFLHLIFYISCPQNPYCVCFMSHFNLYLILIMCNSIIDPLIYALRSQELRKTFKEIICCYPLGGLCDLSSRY
Summary of the method: as §1

human MC4R receptor = human MC4R receptor (human, UniProt P32245 1-332); assay: cell-based or functional assay
Sequence of human MC4R receptor (P32245 whole entry): as above

human MC3R [2] = target: human MC3R (human, UniProt P41968 1-323); assay: cell-based or functional assay
Sequence of human MC3R (human, UniProt P41968 1-323) (P41968 whole entry): as the sequence (P41968 whole entry) above

[3] = agonist mode, hMC4R stable cell line

| Molecule | Emax (human MC3R [1]; hMC3R stable cell line) | MC4R selectivity vs MC1R (human MC4R) | MC4R selectivity vs MC3R (human MC4R) | Emax (human MC4R; [3]) | other results |
| --- | --- | --- | --- | --- | --- |
| CC(=O)N[C@@H](CCCNC(=N)N)C(=O)N[C@H]1CSSC[C@@H](C(N)=O)NC(=O)[C@H]2Cc3ccccc3CN2C(=O)[C@H](CCCNC(=N)N)NC(=O)[C@@H](Cc2ccc(Br)cc2)NC(=O)[C@H](CCCNC(=N)N)NC(=O)[C@@H](C)NC1=O [CTX-1256, Arg-cyclo(Cys-D-Ala-Arg-D-Phe(4-Br)-Arg-D-Tic-Cys)] (Ac-RC[dA]R[dPhe(4-Br)]R[dTic]C-NH2; disulfide 2-8 (inferred)) | 17% | 0.003 | 0.08 | 29% | – |
| CC(=O)N[C@@H](CCCNC(=N)N)C(=O)N[C@H]1CSSC[C@@H](C(=O)N[C@@H](CCCCN)C(N)=O)NC(=O)[C@@H](Cc2c[nH]c3ccccc23)NC(=O)[C@H](CCCNC(=N)N)NC(=O)[C@@H](Cc2ccc(Br)cc2)NC(=O)[C@H](CCCNC(=N)N)NC(=O)[C@@H](C)NC1=O [CTX-1218, Arg-cyclo(Cys-D-Ala-Arg-D-Phe(4-Br)-Arg-D-Trp-Cys)-Lys] (Ac-RC[dA]R[dPhe(4-Br)]R[dW]CK-NH2; disulfide 2-8) | 16% | 1 | 1.85 | 77% | EC50 (human MC3R [1]; hMC3R stable cell line, unit inferred): 4 nM; EC50 (human MC4R; agonist mode, hMC4R stable cell line, unit inferred): 2.2 nM |
| CC(=O)N[C@@H](CCCNC(=N)N)C(=O)N[C@H]1CSSC[C@@H](C(N)=O)NC(=O)[C@H](Cc2c[nH]c3ccccc23)NC(=O)[C@H](CCCNC(=N)N)NC(=O)[C@@H](Cc2ccc3ccccc3c2)NC(=O)[C@@H]2CCCN2C(=O)[C@@H](C)NC1=O [CTX-2203] (Ac-RC[dA]P[d2Nal]RWC-NH2; disulfide 2-8 (inferred)) | 1% | – | 2.45 | 1.4% | EC50 (human MC3R [1]; hMC3R stable cell line): 29 nM; EC50 (human MC4R; [3]): 12 nM |
| CC(=O)N[C@@H](CCCNC(=N)N)C(=O)N[C@H]1CSSC[C@@H](C(N)=O)NC(=O)[C@@H](Cc2ccc3ccccc3c2)NC(=O)[C@H](CCCNC(=N)N)NC(=O)[C@@H](Cc2ccc(Br)cc2)NC(=O)[C@H](CCCNC(=N)N)NC(=O)[C@@H](C)NC1=O [CTX-1254, Arg-cyclo(Cys-D-Ala-Arg-D-Phe(4-Br)-Arg-D-Nal(2′)-Cys)] (Ac-RC[dA]R[dPhe(4-Br)]R[d2Nal]C-NH2; disulfide 2-8) | 5.5% | 0.26 | 2.19 | 22% | – |
| CC(=O)N[C@@H](CCCNC(=N)N)C(=O)N[C@H]1CSSC[C@@H](C(N)=O)NC(=O)[C@@H](Cc2c[nH]c3ccccc23)NC(=O)[C@H](CCCNC(=N)N)NC(=O)[C@@H](Cc2ccc(Br)cc2)NC(=O)[C@@H](CCCNC(=N)N)NC(=O)[C@@H](C)NC1=O [CTX-1250, Arg-cyclo(Cys-D-Ala-D-Arg-D-Phe(4-Br)-Arg-D-Trp-Cys)] (Ac-RC[dA][dR][dPhe(4-Br)]R[dW]C-NH2; disulfide 2-8 (inferred)) | 10% | 1.06 | 11 | 8.7% | – |
| CC(=O)N[C@@H](CCCNC(=N)N)C(=O)N[C@H]1CSSC[C@@H](C(N)=O)NC(=O)[C@@H](Cc2c[nH]c3ccccc23)NC(=O)[C@H](CCCNC(=N)N)NC(=O)[C@@H](Cc2ccccc2)NC(=O)[C@H](Cc2c[nH]cn2)NC(=O)[C@@H](C)NC1=O [CTX-1262, Arg-cyclo(Cys-D-Ala-His-D-Phe-Arg-D-Trp-Cys)] | – | – | – | – | Emax (human MC3R [1]; % maximal activation): 65%; Emax (human MC4R; % maximal activation, agonist mode): 88% |
| CC(=O)N[C@@H](CCCNC(=N)N)C(=O)N[C@H]1CSSC[C@@H](C(N)=O)NC(=O)[C@@H](Cc2c[nH]c3ccccc23)NC(=O)[C@H](CCCNC(N)=O)NC(=O)[C@@H](Cc2ccccc2)NC(=O)[C@H](CCCNC(=N)N)NC(=O)C(C)(C)NC1=O [CTX-1271, Arg-cyclo(Cys-Aib-Arg-D-Phe-Cit-D-Trp-Cys)] (Ac-RC[Aib]R[dF][Cit][dW]C-NH2; disulfide 2-8 (inferred)) | 16% | 2.9 | 1.63 | 95% | EC50 (human MC4R; [3]): 72 nM |
| CCCC[C@H](NC(=O)[C@H](CCCNC(=N)N)NC(C)=O)C(=O)N[C@H]1CSSC[C@@H](C(N)=O)NC(=O)[C@@H](Cc2c[nH]c3ccccc23)NC(=O)[C@H](CCCNC(=N)N)NC(=O)[C@@H](Cc2ccc(Br)cc2)NC(=O)[C@H](CCCNC(=N)N)NC1=O [CTX-1613, Arg-Nle-cyclo(Cys-Arg-D-Phe(4-Br)-Arg-D-Trp-Cys)] (Ac-R[Nle]CR[dPhe(4-Br)]R[dW]C-NH2; disulfide 3-8 (inferred)) | 35% | 0.79 | 2.1 | 32% | EC50 (human MC3R [1]; hMC3R stable cell line): 4 nM; EC50 (human MC4R; [3]): 1.9 nM |
| CCCC[C@H](NC(=O)[C@H](CCCNC(=N)N)NC(C)=O)C(=O)N[C@H]1CSSC[C@@H](C(N)=O)NC(=O)[C@@H](Cc2c[nH]c3ccccc23)NC(=O)[C@H](CCCNC(=N)N)NC(=O)[C@@H](Cc2ccc(I)cc2)NC(=O)[C@H](Cc2c[nH]cn2)NC1=O [CTX-1233, Arg-Nle-cyclo(Cys-His-D-Phe(4-I)-Arg-D-Trp-Cys)] (Ac-R[Nle]CH[dPhe(4-I)]R[dW]C-NH2; disulfide 3-8 (inferred)) | 22% | 0.26 | 1.88 | 16% | EC50 (human MC3R [1]; hMC3R stable cell line): 4.1 nM; EC50 (human MC4R; [3]): 2.2 nM |
| CC(=O)N[C@@H](CCCNC(=N)N)C(=O)N[C@H]1CSSC[C@@H](C(N)=O)NC(=O)[C@H](Cc2c[nH]c3ccccc23)NC(=O)[C@@H](CCCNC(=N)N)NC(=O)[C@@H](Cc2ccccc2)NC(=O)[C@H](CCCNC(=N)N)NC(=O)[C@@H](C)NC1=O [CTX-1282, Arg-cyclo(Cys-D-Ala-Arg-D-Phe-D-Arg-Trp-Cys)] (Ac-RC[dA]R[dF][dR]WC-NH2; disulfide 2-8 (inferred)) | 4.2% | 0.14 | 0.38 | 72% | – |
| COc1ccc(C[C@H]2NC(=O)[C@H](CCCNC(=N)N)NC(=O)CNC(=O)[C@@H](NC(C)=O)CSSC[C@@H](C(N)=O)NC(=O)[C@H](Cc3ccccc3)NC(=O)[C@H](CCCNC(=N)N)NC2=O)cc1 [CTX-1641, cyclo(Cys-Gly-Arg-D-Tyr(4-OMe)-Arg-Phe-Cys)] (Ac-CGR[dY](Me)RFC-NH2; disulfide 1-7) | 22% | 0.28 | 1.18 | 104% | EC50 (human MC3R [1]; hMC3R stable cell line): 52 nM |
| CC(=O)N[C@@H](CCCNC(=N)N)C(=O)N[C@H]1CSSC[C@@H](C(N)=O)NC(=O)[C@@H](Cc2c[nH]c3ccccc23)NC(=O)[C@H](CCCNC(=N)N)NC(=O)[C@@H](CCc2ccccc2)NC(=O)[C@H](CCCNC(=N)N)NC(=O)[C@@H](C)NC1=O [CTX-1239, Arg-cyclo(Cys-D-Ala-Arg-D-Hph-Arg-D-Trp-Cys)] (Ac-RC[dA]R[d(hPhe)]R[dW]C-NH2; disulfide 2-8) | – | 0.1 | 0.3 | – | MC3R cAMP % max activation (human MC3R [1]; hMC3R stable cell line): (7.9%); MC4R cAMP % max activation (human MC4R; [3]): (28%) |
| Ac-RCGR[dF]RWC-NH2 (disulfide 2-8; SMILES CC(=O)N[C@@H](CCCNC(=N)N)C(=O)N[C@H]1CSSC[C@@H](C(N)=O)NC(=O)[C@H](Cc2c[nH]c3ccccc23)NC(=O)[C@H](CCCNC(=N)N)NC(=O)[C@@H](Cc2ccccc2)NC(=O)[C@H](CCCNC(=N)N)NC(=O)CNC1=O) [CTX-1293] | – | – | – | – | % max activation (human MC4R receptor): 87%; cAMP EC50 (human MC4R receptor): 0.25 nM |
| Ac-R[Nle]C[Cit][dF]RWC-NH2 (disulfide 3-8; SMILES CCCC[C@H](NC(=O)[C@H](CCCNC(=N)N)NC(C)=O)C(=O)N[C@H]1CSSC[C@@H](C(N)=O)NC(=O)[C@H](Cc2c[nH]c3ccccc23)NC(=O)[C@H](CCCNC(=N)N)NC(=O)[C@@H](Cc2ccccc2)NC(=O)[C@H](CCCNC(N)=O)NC1=O) [CTX-1607] | – | – | – | – | % max activation (human MC3R [2]): 47%; cAMP EC50 (human MC3R [2]): 14 nM |
| Ac-R[Nle]C[hCit][dF]RWC-NH2 (disulfide 3-8; SMILES CCCC[C@H](NC(=O)[C@H](CCCNC(=N)N)NC(C)=O)C(=O)N[C@H]1CSSC[C@@H](C(N)=O)NC(=O)[C@H](Cc2c[nH]c3ccccc23)NC(=O)[C@H](CCCNC(=N)N)NC(=O)[C@@H](Cc2ccccc2)NC(=O)[C@H](CCCCNC(N)=O)NC1=O) [CTX-1618] | – | – | – | – | % max activation (human MC3R [2]): 33%; cAMP EC50 (human MC3R [2]): 29 nM |
| Ac-R[Nle]CH[dF]RFC-NH2 (disulfide 3-8; SMILES CCCC[C@H](NC(=O)[C@H](CCCNC(=N)N)NC(C)=O)C(=O)N[C@H]1CSSC[C@@H](C(N)=O)NC(=O)[C@H](Cc2ccccc2)NC(=O)[C@H](CCCNC(=N)N)NC(=O)[C@@H](Cc2ccccc2)NC(=O)[C@H](Cc2c[nH]cn2)NC1=O) [CTX-1625] | – | – | – | – | % max activation (human MC4R receptor): 101%; cAMP EC50 (human MC4R receptor): 38 nM |
| Ac-CGH[dF]RFC-NH2 (disulfide 1-7; SMILES CC(=O)N[C@H]1CSSC[C@@H](C(N)=O)NC(=O)[C@H](Cc2ccccc2)NC(=O)[C@H](CCCNC(=N)N)NC(=O)[C@@H](Cc2ccccc2)NC(=O)[C@H](Cc2c[nH]cn2)NC(=O)CNC1=O) [CTX-1637] | – | – | – | – | % max activation (human MC3R [2]): 98%; cAMP EC50 (human MC3R [2]): 68 nM |
